Experimental data published in paper PMC10017709, “Structural basis of selective cannabinoid CB2 receptor activation” (Nature Communications, 2023).
“And” between values parts separate entries of the source, which are not always exact repeats. Identical values can stand only once.

Legend:
CB2R-L185^ECL2H = CB2R-L185^ECL2H (Homo sapiens, UniProt P34972, L185H); test: [35S]GTPγS assay, CB2R L185H mutant; format: biochemical; details: L185H mutant
hCB1R WT = hCB1R WT (Homo sapiens, UniProt P21554); test: [3H]CP55,940 displacement assay, CB1R WT; format: binding
hCB1R WT, sequence (P21554 whole entry): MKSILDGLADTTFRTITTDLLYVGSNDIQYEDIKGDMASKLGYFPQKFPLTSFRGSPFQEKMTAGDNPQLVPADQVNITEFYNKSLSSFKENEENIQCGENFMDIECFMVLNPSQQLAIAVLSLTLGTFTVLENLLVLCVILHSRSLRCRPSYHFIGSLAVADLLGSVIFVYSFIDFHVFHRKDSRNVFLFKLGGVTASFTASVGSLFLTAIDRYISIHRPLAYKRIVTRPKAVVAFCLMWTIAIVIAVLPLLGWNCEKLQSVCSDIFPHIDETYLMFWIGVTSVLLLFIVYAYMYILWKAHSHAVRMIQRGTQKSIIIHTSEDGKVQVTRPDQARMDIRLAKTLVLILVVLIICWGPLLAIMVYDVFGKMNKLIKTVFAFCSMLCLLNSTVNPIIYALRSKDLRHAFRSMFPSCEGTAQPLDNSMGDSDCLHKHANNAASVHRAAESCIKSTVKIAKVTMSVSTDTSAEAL

CB1R D266ECL2E = target: T1, CB1R D266ECL2E (Homo sapiens, UniProt P21554, D266E); test: [3H]CP55,940 displacement assay, CB1R D266E mutant; format: binding
T1 construct: The WT CB1R and CB2R genes were subcloned into vector pcDNA3.1; HA signal peptide (N); expressed in transfected cells; host or cells: HEK293T (transient, membrane homogenates)
T1 sequence (P21554 whole entry D266E): as the sequence (P21554 whole entry) above, with D266E counted along it

CB2R-I110^3.29A = CB2R-I110^3.29A (Homo sapiens, UniProt P34972, I110A); test: [35S]GTPγS assay, CB2R I110A mutant; format: biochemical; details: for [35S]GTPγS binding: I1103.29A, individual replicates
CB2R-I110^3.29A, sequence (P34972 whole entry I110A): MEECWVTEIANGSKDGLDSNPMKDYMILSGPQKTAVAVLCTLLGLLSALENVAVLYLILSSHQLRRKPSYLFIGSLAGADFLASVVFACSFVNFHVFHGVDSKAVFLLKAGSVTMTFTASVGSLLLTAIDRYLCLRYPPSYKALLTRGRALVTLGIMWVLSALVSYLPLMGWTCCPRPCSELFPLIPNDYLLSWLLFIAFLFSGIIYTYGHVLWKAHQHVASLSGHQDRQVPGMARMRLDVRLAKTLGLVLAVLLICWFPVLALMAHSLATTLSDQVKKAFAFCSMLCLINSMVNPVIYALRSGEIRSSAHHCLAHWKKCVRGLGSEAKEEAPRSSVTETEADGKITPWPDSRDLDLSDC

CB1R-H270^ECL2L = CB1R-H270^ECL2L (Homo sapiens, UniProt P21554, H270L); test: [35S]GTPγS assay, CB1R H270L mutant; format: biochemical
CB1R-H270^ECL2L, sequence (P21554 whole entry H270L): as the sequence (P21554 whole entry) above, with H270L counted along it

CB2R-L182^ECL2I = CB2R-L182^ECL2I (Homo sapiens, UniProt P34972, L182I); test: [35S]GTPγS assay, CB2R L182I mutant; format: biochemical; details: L182I mutant
CB2R-L182^ECL2I, sequence (P34972 whole entry L182I): as the sequence (P34972 whole entry I110A) above, with A110I, L182I counted along it

CB2R-I110^3.29L = CB2R-I110^3.29L (Homo sapiens, UniProt P34972, I110L); test: [35S]GTPγS assay, CB2R I110L mutant; format: biochemical; details: for [35S]GTPγS binding: I1103.29L, individual replicates
CB2R-I110^3.29L, sequence (P34972 whole entry I110L): as the sequence (P34972 whole entry I110A) above, with A110L counted along it

hCB2R = target: T2, hCB2R (Homo sapiens, UniProt P34972); test: [3H]RO6957022 competition association assay; format: binding; details: for percentage specific [3H]RO6957022 binding (competition association): individual replicates
T2 construct: host or cells: CHO-K1 (CHOK1_hCB2bgal, PathHunter), membranes
T2 sequence (P34972 whole entry): as the sequence (P34972 whole entry I110A) above, with A110I counted along it

CB2R-Quadruple^TM1,7 = CB2R-Quadruple^TM1,7 (Homo sapiens, UniProt P34972, C40S/K279T/K33Q/V36I); test: [3H]CP55,940 displacement assay, CB2R quadruple mutant; format: binding; details: for percentage specific [3H]CP55,940 binding: QuadrupleTM1,7, individual replicates
CB2R-Quadruple^TM1,7, sequence (P34972 whole entry K33Q/V36I/C40S/K279T): as the sequence (P34972 whole entry I110A) above, with K33Q, V36I, C40S, A110I, K279T counted along it

[1] = I110A mutant, HEK293T membranes

CB2R-L185^ECL2H, sequence (P34972 whole entry L185H): as the sequence (P34972 whole entry I110A) above, with A110I, L185H counted along it

EC50 (CB2R-L185^ECL2H; HEK293T membranes): 0.126 µM | Emax (%) (CB2R-L185^ECL2H; at 10 µM compared to WT): 217 ± 21% | Displacement (%) of [3H]CP55,940 (hCB1R WT; CB1R WT, 10 µM compound): 17 ± 7% | binding to CB1R (hCB1R WT; [3H]CP55,940 displacement): did not bind | selectivity (CB2R over CB1R) (hCB1R WT; binding, CB2R vs CB1R): at least 1000 fold | Displacement (%) of [3H]CP55,940 (CB1R D266ECL2E; CB1R D266E, 10 µM compound): 38 ± 10% | EC50 (CB2R-I110^3.29A; [1]): 0.1 µM | pEC50 (CB2R-I110^3.29A; [1]): no significant effect | Emax (%) (CB2R-I110^3.29A; I110A mutant, at 10 µM compared to WT): 36 ± 13% | Agonist-mediated activation (CB1R-H270^ECL2L; CB1R H270L, 10 µM agonist): 1.2 ± 0.0 fold over its basal | EC50 (CB2R-L182^ECL2I; <5 when curve fit not finished): 0.0398 µM | Emax (%) (CB2R-L182^ECL2I; at 10 µM compared to WT): 11 ± 8% | EC50 (CB2R-I110^3.29L; I110L mutant, HEK293T membranes): 0.0158 µM | Emax (%) (CB2R-I110^3.29L; I110L mutant, at 10 µM compared to WT): 91 ± 3% | Kd (hCB2R; KD = koff/kon, read-out: Kinetic KD): 0.0165 µM | residence time (hCB2R; RT = 1/(60 ∙ koff)): 16 min | percentage specific [3H]RO6957022 binding (competition association) (hCB2R; Time 1 min): 5.83% and -3.44% and 7.40% | percentage specific [3H]RO6957022 binding (competition association) (hCB2R; Time 3 min): 23.25% and 21.50% and 9.87% | percentage specific [3H]RO6957022 binding (competition association) (hCB2R; Time 5 min): 29.56% and 33.35% and 22.10% | percentage specific [3H]RO6957022 binding (competition association) (hCB2R; Time 7 min): 39.12% and 26.72% and 31.06% | percentage specific [3H]RO6957022 binding (competition association) (hCB2R; Time 10 min): 41.53% and 33.11% and 35.03% | percentage specific [3H]RO6957022 binding (competition association) (hCB2R; Time 20 min): 47.20% and 49.02% and 32.99% | percentage specific [3H]RO6957022 binding (competition association) (hCB2R; Time 30 min): 52.67% and 57.37% and 51.93% | percentage specific [3H]RO6957022 binding (competition association) (hCB2R; Time 45 min): 51.61% and 58.35% and 49.36% | percentage specific [3H]RO6957022 binding (competition association) (hCB2R; Time 60 min): 51.74% and 74.63% and 45.92% | percentage specific [3H]RO6957022 binding (competition association) (hCB2R; Time 90 min): 53.57% and 66.52% and 52.04% | percentage specific [3H]RO6957022 binding (competition association) (hCB2R; Time 120 min): 61.01% and 70.76% and 73.93% | ET (engagement time) (hCB2R; at 1 µM agonist, ET = 1/(kon ∙ 1 × 10-6)): 16.0 ± 2.82 s | Ki (CB2R-Quadruple^TM1,7; CB2R Quadruple TM1,7 mutant, <5 when curve fit not finished): 0.158 µM | percentage specific [3H]CP55,940 binding (CB2R-Quadruple^TM1,7; log [ligand] (M) -5): 5.19% and 45.81% and -26.38% | percentage specific [3H]CP55,940 binding (CB2R-Quadruple^TM1,7; log [ligand] (M) -6): 60.64% and 32.84% and -34.85%
SMILES: CC(C)CN1C(=O)CN(Cc2ccc(-c3ccc(F)c(CNC4CCOCC4)n3)cc2)C1=O [LEI-102, 1-(4-(5-fluoro-6-(((tetrahydro-2H-pyran-4-yl)amino)methyl)pyridin-2-yl)benzyl)-3-isobutylimidazolidine-2,4-dione]
percentage specific [3H]CP55,940 binding (hCB1R WT; CB1R - WT, 10 µM ligand, replicates 1-3): 72.08 percentage and 95.14 percentage and 82.84 percentage | percentage specific [3H]CP55,940 binding (CB1R D266ECL2E; CB1R D266ECL2E, 10 µM ligand, replicates 1-3): 65.03 percentage and 44.89 percentage and 77.53 percentage | [35S]GTPγS binding (CB2R-I110^3.29A; log [ligand] (M) -5): 61.30 percentage of WT and 18.20 percentage of WT and 29.13 percentage of WT | [35S]GTPγS binding (CB2R-I110^3.29A; log [ligand] (M) -6): 35.42 percentage of WT and 6.50 percentage of WT and 8.34 percentage of WT | [35S]GTPγS binding (CB2R-I110^3.29A; log [ligand] (M) -7): 35.70 percentage of WT and -4.40 percentage of WT and 26.26 percentage of WT | [35S]GTPγS binding (CB2R-I110^3.29A; log [ligand] (M) -8): 11.80 percentage of WT and -18.30 percentage of WT and 10.49 percentage of WT | [35S]GTPγS binding (CB2R-I110^3.29A; log [ligand] (M) -9): -6.30 percentage of WT and 0.70 percentage of WT and 0.20 percentage of WT | [35S]GTPγS binding (CB2R-I110^3.29A; log [ligand] (M) -10): 15.50 percentage of WT and -9.30 percentage of WT and 14.53 percentage of WT | G protein activation, fold over its basal (CB1R-H270^ECL2L; CB1R H270ECL2L, individual replicates): 1.101 fold over its basal and 1.221 fold over its basal and 1.256 fold over its basal | [35S]GTPγS binding (CB2R-I110^3.29L; log [ligand] (M) -5): 91.04 percentage of WT and 85.60 percentage of WT and 97.60 percentage of WT | [35S]GTPγS binding (CB2R-I110^3.29L; log [ligand] (M) -6): 71.11 percentage of WT and 90.00 percentage of WT and 68.00 percentage of WT | [35S]GTPγS binding (CB2R-I110^3.29L; log [ligand] (M) -7): 49.89 percentage of WT and 105.60 percentage of WT and 64.50 percentage of WT | [35S]GTPγS binding (CB2R-I110^3.29L; log [ligand] (M) -8): 38.52 percentage of WT and 44.70 percentage of WT and 17.20 percentage of WT | [35S]GTPγS binding (CB2R-I110^3.29L; log [ligand] (M) -9): 9.93 percentage of WT and -16.00 percentage of WT and -7.20 percentage of WT | [35S]GTPγS binding (CB2R-I110^3.29L; log [ligand] (M) -10): -2.60 percentage of WT and -2.20 percentage of WT and -32.20 percentage of WT
